From EP0820772A1, “IMMUNOMODULATING MEDICINAL AGENT” (Travkin, Oleg Viktorovich, priority 1995, dated 1996)

Experiments:
Lympho-sarcoma = experiment: Antitumorous effectiveness, lympho-sarcoma tumour mass; conditions: intraperitoneally; proposed drug 30mg./kg. and prototype 300 mg./kg. on days 1, 2, 3 after transplantation; Adriamycin 600 μg./kg. on days 1 and 3; control 1124
Erlich’s carcinoma = experiment: Antitumorous effectiveness, Erlich's carcinoma tumour mass; conditions: intraperitoneally; proposed drug 300 mg./kg. and prototype 300 mg./kg. on days 1 and 3 after transplantation; Adriamycin 600 μg on day 1; control 540
[1] = test system: Herpes simplex - 1 (MS strain); experiment: Herpetic encephalitis, mortality; type: in vivo; conditions: 100 LD 50; 7 days after infection; intraperitoneally; AraA 20 mg./kg. every day; prototype 400 mg./kg. and proposed drug 25 mg./kg. 4 h before and 24 h after infection; control 100%
[2] = test system: Herpes simplex-2 (Ela 5699 strain); experiment: Rabbit keratitis, severity of clinical symptoms; conditions: daily instillation: megosin 3% ointment, prototype 5% ointment, proposed drug 2.1% suspension; for Index of severity of clinical symptoms on day 5 following infection: control 14; for Index of severity of clinical symptoms on day 7 following infection: control 17; for Index of severity of clinical symptoms on day 9 following infection: control 13; for Index of severity of clinical symptoms on day 14 following infection: control 2
[3] = in vivo
leukosis L 1210 = experiment: Treatment of developing leukosis L 1210; conditions: orally on days 1, 2, 3 after transplantation; proposed drug 30 mg./kg., prototype 400 mg./kg.; control 96
[4] = test system: Venezuelan equine encephalitis virus (SPF strain); type: in vivo; conditions: intraperitoneally, Poly (G) 0.1 g./kg. and prototype 200 mg./kg. at infection and 24 h after, proposed drug 20 mg./kg 4 h before and 24 h after infection
Semlika forest virus = Semlika forest virus infection, mortality; type: in vivo; conditions: 30 LD 50; 12 days after infection; intraperitoneally; Remantadin 20 mg./kg 4 h and 24 h after infection; proposed drug 10 mg./kg 4 h before and 24 h after infection; control 80%

Compound | Indices of efficacy (Mean tumour mass (mg.)) (Lympho-sarcoma) [mg] | Indices of efficacy (Mean tumour mass (mg.)) (Erlich’s carcinoma) [mg] | Indices of efficacy, % mortality [1] | Index of severity of clinical symptoms on day 5 following infection [2] | Index of severity of clinical symptoms on day 7 following infection [2] | Index of severity of clinical symptoms on day 9 following infection [2] | Index of severity of clinical symptoms on day 14 following infection [2] | toxicity (therapeutic index) [3] | Percentage of blastular cells in peripheral blood (leukosis L 1210) [%] | Degree of suppression of viral reproduction in the brain 48 hours after infection, expressed as a percentage relative to the control [4] [%] | Indices of efficacy, % mortality (Semlika forest virus)
COc1cccc2c1C(=O)c1c(O)c3c(c(O)c1C2=O)C[C@@](O)(C(=O)CO)C[C@@H]3O[C@H]1C[C@H](N)[C@H](O)[C@H](C)O1 [Adriamycin] | 622 | 100 | – | – | – | – | – | – | – | – | –
Nc1ncnc2c1ncn2[C@@H]1O[C@H](CO)[C@@H](O)[C@@H]1O [AraA, adenin - arabinosid] | – | – | 42%, 7 days after infection | – | – | – | – | – | – | – | –
CN(C)CCOc1ccc2cc3cc([N+](=O)[O-])c(OCCN(C)C)c(Cl)c3nc2c1Cl [The prototype, 3.6 - bis(2-dimethylaminetoxy)-4.5-dichlorine-2-nitroacridine] | 820 | 200 | 22% | 10 | 14 | 8 | 1 | 10-15 | 40 | 74 | –
CC(N)C12CC3CC(CC(C3)C1)C2 (stereo not drawn) [Remantadin] | – | – | – | – | – | – | – | – | – | – | 20%, 12 days after infection
ether of 10 - methylencarboxylat-9-acridone [The proposed drug] | 534 | 74 | 5% | 5 | 3 | 1 | 0 | – | 18 | 98 | 0%
